Reference: the NIST ThermoML archive (doi:10.1021/acs.jced.6b00201)
Numbers after ± are expanded uncertainties.

Assays:
[1] = Molar enthalpy of transition or fusion; details: DSC
[2] = for Triple point temperature / Glass transition temperature: DSC; for Normal melting temperature: visual observation

Row | Compound | Molar enthalpy of transition or fusion ([1]; Crystal 1) [kcal/mol] | Glass transition temperature [2] [°C] | Triple point temperature ([2]; Crystal) [K] | Normal melting temperature ([2]; Crystal) [°C] | further results
1 | CCCCn1cc[n+](C)c1.F[P-](F)(F)(F)(F)F [1-butyl-3-methylimidazolium hexafluorophosphate] | 2.73 ± 0.0837 | -74.28 ± 1.2 | – | – | Triple point temperature ([2]; Crystal 1): 286.46 ± 1.2 K
2 | CCCCn1cc[n+](C)c1.F[B-](F)(F)F [1-butyl-3-methylimidazolium tetrafluoroborate] | – | -83.90 ± 8 | – | – | –
3 | CCCCn1cc[n+](C)c1.O=S(=O)([O-])C(F)(F)F [1-butyl-3-methylimidazolium trifluoromethanesulfonate] | – | – | 291.46 ± 1.2 | – | Molar enthalpy of transition or fusion ([1]; Crystal): 4.82 ± 0.141 kcal/mol
4 | CCCCCCCCn1cc[n+](C)c1.O=S(=O)([O-])C(F)(F)F [1-octyl-3-methylimidazolium trifluoromethanesulfonate] | 5.76 ± 0.165 | – | 283.51 ± 1.2 | – | –
5 | NNC(=O)c1ccncc1 [isonicotinic acid hydrazide] | – | – | – | 172.69 ± 2 | –
6 | NC(=O)c1cnccn1 [pyrazinecarboxamide] | – | – | – | 188.27 ± 0.16 | –
